What all share (type): in vivo
For assay [1], the system named is Rice. The assay can be described thus: Postemergence Herbicidal Activity, Rice. To be noted: Oryza sativa, post-emergence; for plant injury at 250 g/ha: 0.25 kg/ha. In a few lines: (§1)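 Percent control of the crop served as the read-out, with dosing stated in kilograms per hectare.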
Assay [2] relates to Soybean. The assay can be described thus: Preemergence Herbicidal Activity, Soybean. Summed up: as §1
The subject of assay [3] is Wheat. The assay can be described thus: Postemergence Herbicidal Activity, Wheat. The settings on record: Triticum aestivum, post-emergence; for plant injury at 250 g/ha: 0.25 kg/ha. In a few lines:
as §1

Assay [4] concerns Green Foxtail. The assay can be described thus: Preemergence Herbicidal Activity, Green Foxtail. To be noted: Setaria viridis, pre-emergence; for pest or weed control at 250 g/ha: 0.25 kg/ha. Summed up:
(§2)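 Efficacy is recorded as percent control at each application rate, expressed in kg/ha.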

In assay [5] the test system is soybeans, corn, barley, wheat, rice (e.g. paddy rice), beans, peas, peanuts and potatoes. The assay can be described thus: selective herbicidal use on crops, especially preemergent.
Assay [6] relates to Johnsongrass. The assay can be described thus: Postemergence Herbicidal Activity, Johnsongrass. To be noted: Sorghum halepense, post-emergence; for pest or weed control at 250 g/ha: 0.25 kg/ha. Summed up: as §2
For assay [7], the system named is broad leaf weeds. The assay can be described thus: preemergence use against broad leaf weeds. The settings on record: with crops such as corn, rice, wheat and soybeans.
In assay [8] the test system is Rice. The assay can be described thus: weed control of paddy rice in pots, transplanted rice. To be noted: rice transplanted at a depth of 2 cm. From the text:
(§3) In addition, tests of the effectiveness of weed control of paddy rice were done in pots containing clay loam paddy soil under water maintained at a depth of 3 cm. In one test tubers of narrowleaf arrowhead (Sagittaria pymaea) and rhizomes of flatsedge (Cyperus serotinus) were planted in pots at depth of 2 cm and 0.5 cm respectively, rice seedlings of 2.2 leaf state were transplanted in depth of 2 cm and 0 cm and a controlled amount of a 10% wp (wettable powder) formulation of the herbicidal compound in water was dropped into the water over the soil at 1 day and 11 days, respectively, after transplanting. In another test, seeds of various weed species (including barnyardgrass, Echinochoa crus-galli; small flower umbrellaplant, Cyperus difformis; bulrush, Scripus juncoides; Japanese ducksalad, Monochoria vaginalis; annual broadleaf weeds; and narrowleaf waterplantain, Alisma canaliculatium) were sown on the surface of the soil and the same (1 day and 11 day) herbicide applications were made.

Assay [9] deals with weeds of wide spectrum. The assay can be described thus: weed control of paddy rice in pots, weeds. To be noted: 1 day and 11 day treatments, e.g. about 0.06 kg/ha or less.
Source text: as §3

Assay [10] has as its system Morningglory. The assay can be described thus: Postemergence Herbicidal Activity, Morningglory. The settings on record: Ipomoea, post-emergence; for pest or weed control at 250 g/ha: 0.25 kg/ha. In a few lines: (§4)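 Read-out is percent control (% C) at application rates expressed in kilograms per hectare. Compounds were generally delivered in a 50/50 acetone/water solution, either before emergence or onto emerged plants.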

The test system of assay [11] is Green Foxtail. The assay can be described thus: Postemergence Herbicidal Activity, Green Foxtail. The settings on record: Setaria viridis, post-emergence; for pest or weed control at 250 g/ha: 0.25 kg/ha. Summed up: as §2
Assay [12] concerns Soybean. The assay can be described thus: Postemergence Herbicidal Activity, Soybean. The settings on record: Glycine max, post-emergence; for plant injury at 250 g/ha: 0.25 kg/ha. In a few lines:
as §1

The test system of assay [13] is Field Corn. The assay can be described thus: Postemergence Herbicidal Activity, Field Corn. To be noted: Zea mays, post-emergence; for plant injury at 250 g/ha: 0.25 kg/ha. In a few lines:
as §1

Assay [14] deals with Barnyardgrass. The assay can be described thus: Preemergence Herbicidal Activity, Barnyardgrass. To be noted: Echinochloa crus-galli, pre-emergence; for pest or weed control at 250 g/ha: 0.25 kg/ha. In a few lines: as §2
The subject of assay [15] is Cotton. The assay can be described thus: Preemergence Herbicidal Activity, Cotton. Summed up: as §4
Assay [16] has as its system Velvetleaf. The assay can be described thus: Postemergence Herbicidal Activity, Velvetleaf. To be noted: Abutilon theophrasti, post-emergence; for pest or weed control at 250 g/ha: 0.25 kg/ha. In a few lines:
as §4

Assay [17] relates to Field Bindweed. The assay can be described thus: Postemergence Herbicidal Activity, Field Bindweed. The settings on record: post-emergence; for pest or weed control at 250 g/ha: 0.25 kg/ha. In a few lines:
as §4

The subject of assay [18] is Wheat. The assay can be described thus: Preemergence Herbicidal Activity, Wheat. The settings on record: Triticum aestivum, pre-emergence; for plant injury at 250 g/ha: 0.25 kg/ha. Summed up:
as §1

Assay [19] concerns Cotton. The assay can be described thus: Postemergence Herbicidal Activity, Cotton. To be noted: Gossypium hirsutum, post-emergence; for plant injury at 250 g/ha: 0.25 kg/ha. Summed up:
as §4

Assay [20] concerns Johnsongrass. The assay can be described thus: Preemergence Herbicidal Activity, Johnsongrass. To be noted: Sorghum halepense, pre-emergence; for pest or weed control at 250 g/ha: 0.25 kg/ha. In a few lines:
as §2

Assay [21] relates to Barnyardgrass. The assay can be described thus: Postemergence Herbicidal Activity, Barnyardgrass. The settings on record: Echinochloa crus-galli, post-emergence; for pest or weed control at 250 g/ha: 0.25 kg/ha. In a few lines: as §2
Assay [22] concerns broadleafed weeds. The assay can be described thus: postemergence control of broadleaf weeds.
The subject of assay [23] is Rice. The assay can be described thus: Preemergence Herbicidal Activity, Rice. To be noted: Oryza sativa, pre-emergence. In a few lines:
as §1

In assay [24] the test system is Field Bindweed. The assay can be described thus: Preemergence Herbicidal Activity, Field Bindweed. To be noted: pre-emergence. In a few lines:
as §4

Assay [25] relates to Morningglory. The assay can be described thus: Preemergence Herbicidal Activity, Morningglory. The settings on record: Ipomoea, pre-emergence. Summed up: as §4
For assay [26], the system named is corn, wheat and soybeans. The assay can be described thus: postemergence crop selectivity.
In assay [27] the test system is Velvetleaf. The assay can be described thus: Preemergence Herbicidal Activity, Velvetleaf. To be noted: Abutilon theophrasti, pre-emergence. In a few lines:
as §4

Assay [28] has as its system Field Corn. The assay can be described thus: Preemergence Herbicidal Activity, Field Corn. To be noted: Zea mays, pre-emergence. Summed up: as §1
Assay [29] has as its system cotton or soybeans. The assay can be described thus: preemergence crop selectivity. To be noted: rates below about 1/4 or 1/10 kg/ha.

One may read the plant injury as how far the test organism was held down. A high value points to strong suppression. Usually pest or weed control stands for the degree to which the test organism was suppressed or injured, in per cent. As for `CCS(=O)(=O)Nc1cc(-n2nnn(CCCF)c2=O)c(F)cc1Cl` [Compound 4, 1-[4-chloro-2-fluoro-5-(ethylsulfonylamino)phenyl]-1,4-dihydro-4-(3-fluoropropyl)-5H-tetrazol-5-one], the plant injury at 250 g/ha worked out at 20% in [1]; 20% in assay [3]; 60% in [12]; 50% in assay [13]; 10% in [18]; 100% in assay [19]. Also, the “Preemergence Herbicidal Activity” value in assay [2] (0.25 kg/ha) came out at 0 % Control; in assay [15] (0.25 kg/ha), 95 % Control. The pest or weed control at 250 g/ha in [4] came out at 20%; in assay [6] it was 20%; in assay [10], 95%; in assay [11], 80%; in assay [14], 80%; in assay [16] it was 100%. The results for the pest or weed control at 250 g/ha in assay [17], in assay [20] and in assay [21] were 100%, 30% and 50%, respectively. Also, in assay [5] ("effective at low rates, e.g. at about 0.5 kg/ha and below"), the effective rate is recorded as at most 0.5 kg/ha. Moreover, in assay [5] (especially preemergent use on crops), the selective herbicidal effectiveness result is reported as “particularly effective”. For the same molecule, in assay [7], the “usefulness preemergently against broad leaf weeds” value was “particularly useful”. Further, the “selectivity (paddy rice)” value in assay [8] was “selectivity favorable to rice”. Further, in assay [9], the “activity against weeds (paddy)” value is “very high activity”. Besides, the “control of broadleafed weeds, postemergent” value in [22] (plantings of corn, wheat, barley, oats, rice and sorghum, about 30 to 250 g/ha, e.g. 125 g/ha) is given as “very good control”.
Turning to `CCS(=O)(=O)N(c1cc(-n2nnn(CCCF)c2=O)c(F)cc1Cl)S(C)(=O)=O` [Compound 11, 1-[4-chloro-2-fluoro-5-[(N--ethylsulfonyl-N--methylsulfonyl)amino]-phenyl]-1,4-dihydro-4-(3-fluoropropyl)-5H--tetrazol-5-one], the plant injury at 500 g/ha in assay [1] (0.5 kg/ha) came to 40%; in assay [2] (Glycine max, pre-emergence, 0.5 kg/ha), 30%; in [3] (0.5 kg/ha), 70%; in assay [23] (0.5 kg/ha), 80%; in [12] (0.5 kg/ha), 60%; in assay [13] (0.5 kg/ha), 80%. Moreover, the plant injury at 500 g/ha in assay [15] (Gossypium hirsutum, pre-emergence, 0.5 kg/ha) amounted to 100%; in assay [18] (0.5 kg/ha) it was 80%; in assay [19] (0.5 kg/ha), 100%; in assay [28] (0.5 kg/ha), 95%. The pest or weed control at 500 g/ha in [4] (0.5 kg/ha) amounted to 100%; in assay [6] (0.5 kg/ha) it was 50%; in assay [10] (0.5 kg/ha), 80%; in assay [11] (0.5 kg/ha), 80%; in assay [24] (0.5 kg/ha), 100%; in assay [14] (0.5 kg/ha), 100%. Also, the pest or weed control at 500 g/ha in [25] (0.5 kg/ha) came out at 100%; in assay [16] (0.5 kg/ha), 100%; in [17] (0.5 kg/ha), 100%; in assay [20] (0.5 kg/ha), 90%; in assay [21] (0.5 kg/ha), 80%; in [27] (0.5 kg/ha), 100%. Further, the “selectivity for crops, postemergence” value in assay [26] is on record as “favorable selectivity”. Further, the “results in postemergence use against broadleafed weeds” value in assay [22] (postemergence, corn, wheat and soybeans) is given as “particularly good results”.
With `CCCN(c1cc(-n2nnn(CCCF)c2=O)c(F)cc1Cl)S(=O)(=O)CC` [Compound 14], the plant injury at 1000 g/ha in assay [1] (1.0 kg/ha) worked out at 100%; in assay [2] (Glycine max, pre-emergence, 1.0 kg/ha), 95%; in assay [3] (1.0 kg/ha), 100%; in assay [23] (1.0 kg/ha), 100%; in [12] (1.0 kg/ha), 100%; in assay [13] (1.0 kg/ha) it was 100%. Moreover, the plant injury at 1000 g/ha in assay [15] (Gossypium hirsutum, pre-emergence, 1.0 kg/ha) turned out to be 100%; in assay [18] (1.0 kg/ha) it was 100%; in assay [19] (1.0 kg/ha), 100%; in [28] (1.0 kg/ha) it was 100%. For the same molecule, in [29], the herbicide selectivity entry is on record as “highly selective”. Besides, the pest or weed control at 1000 g/ha in [4] (1.0 kg/ha), in [6] (1.0 kg/ha), in assay [10] (1.0 kg/ha), in [11] (1.0 kg/ha), in assay [24] (1.0 kg/ha) and in [14] (1.0 kg/ha) was 100% in each case. The pest or weed control at 1000 g/ha in [25] (1.0 kg/ha), in assay [16] (1.0 kg/ha), in assay [17] (1.0 kg/ha), in [20] (1.0 kg/ha), in assay [21] (1.0 kg/ha) and in assay [27] (1.0 kg/ha) was 100% in each case.
Consider `CCS(=O)(=O)Nc1cc(-n2nnn(CCCF)c2=O)c(F)cc1Br` [Compound 34, 1-[4-Bromo-2-fluoro-5-(N--ethylsulfonylamino)phenyl]-4,5-dihydro-], for which the plant injury at 250 g/ha in assay [1] was 70%; in assay [2] (Glycine max, pre-emergence, 0.25 kg/ha), 20%; in assay [3], 40%; in assay [23] (0.25 kg/ha), 60%; in [12], 70%; in assay [13], 40%. In addition, the plant injury at 250 g/ha was found to be 95% in [15] (Gossypium hirsutum, pre-emergence, 0.25 kg/ha); 0% in assay [18]; 100% in assay [19]; 60% in assay [28] (0.25 kg/ha). Moreover, the pest or weed control at 250 g/ha was found to be 70% in assay [4]; 50% in [6]; 100% in assay [10]; 90% in assay [11]; 100% in assay [24] (0.25 kg/ha); 95% in assay [14]. For the same molecule, the pest or weed control at 250 g/ha came out at 100% in [25] (0.25 kg/ha); 100% in [16]; 100% in [17]; 50% in [20]; 70% in assay [21]; 100% in assay [27] (0.25 kg/ha). Further, the “usefulness preemergently against broad leaf weeds” value in assay [7] is given as “particularly useful”.

(Values after patent US4868321A, “Isothiocyanate intermediates” (FMC Corporation, priority 1988, dated 1989).)
